These results are taken from patent publication US20180042827A1, “METHOD OF PROTECTING SKIN FROM ULTRAVIOLET RADIATION” (FIC BIOTECH INC., priority 2016, published 2018).

SMILES strings stand for the structures. Entries after “also recorded” stand apart in the source; their conditions may differ.

Holding throughout (type): cell-based, human
Assay [1] deals with HFF-3 cells. As to the kind of experiment: TUNEL analysis of apoptotic cell death after UVA irradiation. To be noted: 200 μM added prior to UVA (50 KJ/cm^2), UVA alone ca 40%. The method, then:
(§1) When cells were seeded in culture dish for overnight incubation, 200 μM of compound (I-1) was added to the cells for 2 hours before UVA irradiation.
(§2) Apoptotic cell death was assayed by using an Apo-BrdU in situ DNA fragmentation assay kit. This kit measures the fragmented DNA of apoptotic cells by catalytically incorporating fluorescein-12-dUTP at 3′-OH DNA ends using the terminal deoxynucleotidyl transferase enzyme. The fluorescein-12-dUTP-labeled DNA can then be visualized by confocal scanning microscope and quantified by using software.

Assay [2] relates to HFF-1 cells (G6PD deficient skin fibroblast). Described as above. To be noted: 200 μM added prior to UVA (50 KJ/cm^2), UVA alone ca 80%. The procedure: as §1, §2
For assay [3], the system named is HFF-3 cells. Kind of assay: Intracellular glutathione (GSH) depletion (CMF-DA fluorescence) after UVA irradiation. To be noted: 200 μM added prior to UVA irradiation (25, 50 and 100 KJ/cm^2). The procedure:
as §1
(§3) Glutathione (GSH) fluorescent dye: 10 μM of 5-chloromethyl fluorescein diacetate (CMF-DA). When CMF-DA enters the cells, the trapped CMF reacts with the GSH to form a fluorescent compound which to emit fluorescent light (excitation light: 492 nm, scattered light: 517 nm).
(§4) HFF-3 and HFF-1 cells were cultivated and irradiated with various dosages of UVA (25, 50 and 100 KJ/cm^2). The culture medium was then replaced with new medium and treated with […] CMF-DA probe for 30 minutes at 37° C. in the dark. Cells were detached by trypsinization, collected by centrifugation and resuspended in PBS. The intracellular GSH contents, as reflected by the green fluorescence intensity of CMF-GSH, were then observed using laser scanning confocal microscope.

In assay [4] the test system is HFF-1 cells (G6PD deficient skin fibroblast). The assay is described as above. The note with it: 200 μM added prior to UVA irradiation (25, 50 and 100 KJ/cm^2). The procedure:
as §1, §3, §4

Assay [5] concerns HFF-3 cells. As to the kind of experiment: Intracellular ROS detection (DCF-DA fluorescence) after UVA irradiation. To be noted: 200 μM added prior to UVA irradiation (25, 50 and 100 KJ/cm^2). The method, then:
as §1
(§5) Reactive oxygen species (ROS) fluorescent dye: when 10 μM of 2′,7′-dichlorodihydrofluorescindiacetate (DCF-DA) enters the cells, DCF trapped is oxidized by the ROS and emits fluorescent light (excitation light: 488 nm, scattered light: 525 nm).
(§6) HFF-3 and HFF-1 cells were cultivated and irradiated with various dosages of UVA (25, 50 and 100 KJ/cm^2). The culture medium was then replaced with new medium and treated with 10 μM of DCF-DA probe for 30 minutes at 37° C. in the dark. Cells were detached by trypsinization, collected by centrifugation and resuspended in PBS. The intracellular ROS, as reflected by the DCF green fluorescence, were then observed using laser scanning confocal microscope.

Assay [6] relates to HFF-1 cells (G6PD deficient skin fibroblast). The description is as above. To be noted: 200 μM added prior to UVA irradiation (25, 50 and 100 KJ/cm^2). The procedure: as §1, §5, §6
Assay [7] concerns HFF1 cells (G6PD deficient skin fibroblast). As to the kind of experiment: Intracellular lipid peroxidation (C11-BODIPY 581/591 fluorescence) after UVA irradiation. The note with it: pretreated, 50 KJ/m^2 UVA, versus only UVA-treated cells. The method, then: as §1
(§7) When the ROS attacks the C11-BODIPY^581/591 on the cell membrane, it will emit fluorescent light (excitation light: 488 nm, scattered light: 510-665 nm).
(§8) After treating 10 μM C11-BODIPY^581/591 for 30 minutes at 37° C., the cells were washed with HEPES buffer (4-(2-hydroxyerhyl)-piperazine-1-erhanesulfonic acid, HEPES) and were observed by using the laser scanning confocal microscope.

The next assay concerns HFF3 cells. Described as above. The note with it: pretreated, 50 KJ/m^2 UVA, versus only UVA-treated cells. The procedure: as §1, §7, §8
Assay [8] has as its system HFF-3 cells. As to the kind of experiment: Calcium detection of cytoplasm and mitochondria (Fluo-4 / Rhod-2) after UVA irradiation. To be noted: 200 μM added prior to UVA (50 KJ/cm^2). The method, then:
as §1
(§9) Calcium mobilization detection dye: 1.5 μM of RHOD-2/AM (rhod-2) is a cell-permeable fluorescent probe for measuring calcium (Ca^2+) in mitochondria (excitation light: 543 nm, scattered light: 581 nm), and 2 μM of FLUO-4/AM (fluo-4) is a cell-permeable fluorescent probe for measuring calcium (Ca^2+) in cytoplasm (excitation light: 488 nm, scattered light: 516 nm).
(§10) HFF-3 and HFF-1 cells were cultivated and irradiated with UVA (50KJ/cm^2). The culture medium was then replaced with new medium and treated with 2 μM Flou-4 and 1.5 μM of Rhod-2 (for the detection of mitochondrial calcium) for 30 minutes at 37° C. in the dark. Rhod-2 is a cationic rhodamine-based indicator probe and it can accumulate preferentially in potential-driven uptake in mitochondria. The resting mitochondrial calcium concentration is generally in the range of 100-150 nM. At this level of calcium, the brownish red fluorescence of Rhod-2 is minimal. However, when large excess of calcium ions are uptaken by the mitochondria, concentration-dependent increases in the intensities of Rhod-2 fluorescence will occur. The phenomenon is a testimony of mitochondrial calcium overload.

The test system of assay [9] is HFF-1 cells (G6PD deficient skin fibroblast). The description is as above. To be noted: 200 μM added prior to UVA (50 KJ/cm^2). The method, then:
as §1, §9, §10

Turning to `COC(=O)c1cc(O)c(O)c(O)c1` [compound (I-1), methyl gallate], the results for the TUNEL-positive cell population (in the assay on HFF-3 cells [1]; in assay [2]) were 8% and 18%, respectively. In addition, the “intracellular GSH depletion (green fluorescence of CMF-GSH)” value (with HFF-3 cells [3]; in assay [4]) was “nearly complete protection of GSH depletion; also recorded: nearly complete recovery of green fluorescence” in each case. The “production of intracellular ROS (DCF fluorescence)” value is “almost completely suppressed” in the assay on HFF-3 cells [5] and “almost completely suppressed; also recorded: nearly complete suppression of ROS production” in assay [6]. Also, the “intracellular lipid peroxidation (green fluorescent intensity of C11-BODIPY 581/591)” value (in [7]; in the assay on HFF3 cells) was “weaker than that of the only UVA-treated cells; also recorded: significant decline of green fluorescence” each time. Moreover, the “mitochondrial calcium overload (brownish red fluorescence of Rhod-2)” value was “can prevent calcium overload in mitochondria; also recorded: could effectively be suppressed” with HFF-3 cells [8] and “drastic decrease in brownish red fluorescence intensity; also recorded: could effectively be suppressed” in assay [9].
